Data: article PMC7997574, “Lead Optimization of Benzoxazolone Carboxamides as Orally Bioavailable and CNS Penetrant Acid Ceramidase Inhibitors” (Journal of Medicinal Chemistry, 2020)

What was measured:
[1] = molecular target: T1, human N-acylethanolamine acid amidase (hNAAA) (Homo sapiens, UniProt Q02083); assay: Fluorogenic hNAAA assay; assay type: biochemical
T1 construct: expressed in transfected cells
T1 sequence (Q02083 29-359): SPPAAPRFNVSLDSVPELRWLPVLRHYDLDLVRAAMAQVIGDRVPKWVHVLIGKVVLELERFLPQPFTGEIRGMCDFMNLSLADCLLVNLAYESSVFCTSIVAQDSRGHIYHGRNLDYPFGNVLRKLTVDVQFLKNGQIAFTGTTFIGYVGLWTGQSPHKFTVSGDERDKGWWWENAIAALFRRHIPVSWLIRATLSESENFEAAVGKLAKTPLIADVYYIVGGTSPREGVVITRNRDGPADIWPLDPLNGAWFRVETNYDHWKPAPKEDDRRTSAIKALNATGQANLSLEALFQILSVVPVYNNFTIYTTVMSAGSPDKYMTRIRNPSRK
Procedure: HEK-293 cells stably transfected with the hNAAA coding sequence cloned from a human spleen cDNA library (catalog no. 639124, Clontech, Mountain View, CA, USA) were used as the enzyme source. Cells were grown in Dulbecco’s modified Eagle medium (DMEM) containing 10% FBS, 1% glutamine, 1 mM sodium pyruvate, and 500 μg mL^–1 G418. Cells were harvested, and pellets were stored at −80 °C until lysosomal-enriched lysate preparation. Cells were suspended in 20 mM Tris HCl (pH 7.4) with 0.32 M sucrose, sonicated, and centrifuged at 800 × g for 30 min at 4 °C. Supernatants were then ultracentrifuged at 12000 × g for 30 min at 4 °C. […] The suspension was finally ultracentrifuged at 105000 × g for 1 h at 4 °C, supernatants were collected, protein concentration was measured, and samples were aliquoted and stored at −80 °C until use.
The assay was run in 96-well microplates (Black OptiPlate-96F; PerkinElmer, Massachusetts, USA) in a total reaction volume of 200 μL. hNAAA protein preparation (4.0 μg) was preincubated for 30 min with various concentrations of test compounds or vehicle control (DMSO 5%) in 100 mM citrate/phosphate buffer (pH 4.5) containing 3.0 mM DTT, 0.1% NP40 0.1%, 0.05% BSA, 150 mM NaCl. […] Fluorescence was measured with an EnVision 2014 Multilabel Reader (PerkinElmer, Massachusetts, USA) using an excitation wavelength of 355 nm and emission of 460 nm. […]

GalSph (d18:1) = assay: Brain GalSph levels in Twitcher mice (Krabbe's disease model); assay type: in vivo, mouse; conditions: for reduction of GalSph (d18:1) levels in the brains: Twitcher mice; for GalSph(d18:1) change (Figure 8): brain
Procedure: 4L;C* mice (C57BL/6 J/129SvEV) were randomly assigned to three treatment groups (N = 4–8 with mixed males and females) and dosed once a day i.p. with 90 or 30 mg kg^–1 of 22m or vehicle. Treatment started at 5 days of age for a duration of 14 days. The application volume was set to 10 μL per gram of body weight, and dosage was adjusted accordingly. Animals of all groups were sacrificed 1 h after the last dose, and the brain tissues and plasma were collected. The left brain containing cortex, cerebella, thalamus, and brainstem was analyzed for SphL levels by MS. Data were analyzed using the Student t test. The right brain containing cortex, cerebella, thalamus, and brainstem and plasma were analyzed for drug levels of 22m. All mice were housed under pathogen-free conditions in the animal facility, and animal experiment was performed according to the IACUC approved protocol (2018-0056) at Cincinnati Children’s Hospital Research Foundation. Wild Type (WT) (GALC+/+) and Twitcher (Twi) (GALC–/−) mice were genotyped by PCR as previously described.[58] Twi mice were randomly assigned to three treatment groups (N = 3 males + N = 3 females for each group) and dosed once a day i.p. with 90 or 30 mg kg^–122m or vehicle for a duration of 20 days. Treatment started at 10 days of age. The application volume was set to 10 μL per gram of body weight, and dosage was adjusted accordingly. Two groups (N = 3 males + N = 3 females for each group) of WT controls treated with vehicle or high dose (90 mg kg^–1) of 22m were also included in the study. Animals of all groups were sacrificed 1 h after the last dose, and the brain tissues and plasma were collected. The left brain containing cortex, cerebella, thalamus, and brainstem was analyzed for SphL levels by MS. Data were analyzed using the Student t test. The right brain containing cortex, cerebella, thalamus, and brainstem and plasma were analyzed for drug levels of 22m. All animal work in this study was performed in accordance with approved animal protocols from the Animal Care and Use Committee at the University of Illinois at Chicago.

[2] = In vitro mouse brain tissue protein binding (equilibrium dialysis); assay type: in vitro ADME
Procedure: Studies were performed by the DMPK Group at Shanghai ChemPartner Co., Ltd., using the equilibrium dialysis method. Values are the mean of two technical replicates.

For `CC(C)CNC(=O)n1c(=O)oc2cc(C3CCN(C)CC3)ccc21` [22m, N-Isobutyl-6-(1-methyl-4-piperidyl)-2-oxo-1,3-benzoxazole-3-carboxamide], the IC50 [1] was 8 µM, the “reduction of GalSph (d18:1) levels in the brains” value (GalSph (d18:1); 30 mg kg^–1 i.p. once daily for 20 days) was 41% and the “reduction of GalSph (d18:1) levels in the brains” value (GalSph (d18:1); 90 mg kg^–1 i.p. once daily for 20 days) was 72%. The “GalSph(d18:1) change (Figure 8)” value (GalSph (d18:1); Twi 30 mg/kg i.p.) was -41%, the “GalSph(d18:1) change (Figure 8)” value (GalSph (d18:1); Twi 90 mg/kg i.p.) was -72% and the “Fb, u (%) brain fraction unbounded” value [2] was 0.70%.
